These results are taken from paper PMC12040169 (PLOS Biology, 2025).

The data set can be described thus: in vitro. Conditions: human, hela cells, % viability.
Regarding `C[C@]12CN(C(=O)C3CCCC3)C[C@H]1NC(=O)c1ccccc1C2=O` [CBK281672], the viability at 28.5 h, 10 µM came to 95.4%.

As for `CC(C)N1CCC(CNC(=O)c2cc3ccccc3c(=O)s2)CC1` [CBK282711], the viability at 28.5 h, 10 µM is 88.6%.

As to `COc1ccc(S(=O)(=O)N2CCCCC2C(=O)O)cc1` (stereo not shown) [CBK077424], the viability at 28.5 h, 10 µM was found to be 99.5%.

As for `CC(C)NC(=O)C1CC2CCC1CC21NC(=O)c2ccccc2O1` (stereo not shown) [CBK284353], the viability at 28.5 h, 10 µM was 83.5%.

With `O=C(O)CSc1nc2ccccc2[nH]1` [CBK225127], the viability at 28.5 h, 10 µM was 95.3%.

For `O=C1NC2(CCCCC2)C(=O)N1c1ccc(F)cc1F` [CBK281945], the viability at 28.5 h, 10 µM worked out at 111%.

On to `Cc1c(CN(Cc2cccc(F)c2)CC2CCCO2)cnn1C` (stereo not shown) [CBK282953], for which the viability at 28.5 h, 10 µM was 89.9%.

Take `O=C(Nc1ccc([C@@H](O)[C@H]2COCC(=O)N2Cc2cccnc2)cc1)c1ccccc1` [CBK289319]: the viability at 28.5 h, 10 µM was found to be 111%.

Regarding `O=C(Nc1ccc(-c2nc3ccccc3s2)c(O)c1)c1ccc(-c2ccccc2)cc1` [CBK263979], the viability at 28.5 h, 10 µM was 92.9%.

As to `Fc1ccc(-c2cncc(NCc3ccco3)n2)c(F)c1` [CBK065834], the viability at 28.5 h, 10 µM turned out to be 91.9%.

As to `CCn1nc(C)c(CN2CCCC(c3cc4cccnc4[nH]3)C2)c1C` (stereo not shown) [CBK284977], the viability at 28.5 h, 10 µM turned out to be 107%.

Turning to `CC(C)C[C@@H](C(=O)N1CCC(C(=O)O)CC1)n1c(=O)[nH]c2ccccc2c1=O` [CBK286762], the viability at 28.5 h, 10 µM was found to be 88.5%.

On to `Cc1c(NC2CCN(c3ccc(C#N)cc3)C2=O)cnn1C1CCCC1` (stereo not shown) [CBK304735], for which the viability at 28.5 h, 10 µM came to 113%.

For the compound `N#Cc1c(N)n(CCN)c2nc3ccccc3nc12` [CBK266706], the viability at 28.5 h, 10 µM came to 87.4%.

In the case of `O=C(CCN1CCc2ccccc2C1)Nc1ccccc1F` [CBK264202], the viability at 28.5 h, 10 µM was found to be 94.9%.

With `Cc1cnoc1-c1cc(Cl)cc(Cl)c1O` [CBK015870], the viability at 28.5 h, 10 µM amounted to 89.3%.

On to `Cn1cc(Cl)c(C2CCCCCN2C(=O)c2ccco2)n1` (stereo not shown) [CBK285105], for which the viability at 28.5 h, 10 µM stood at 96.5%.

For the compound `CCOC(=O)N1N=C(c2ccc(F)cc2)CC1(O)C(F)(F)F` (stereo not shown) [CBK027156], the viability at 28.5 h, 10 µM was determined as 111%.

Take `O=C1CC(N2CCN(c3ccccn3)CC2)C(=O)N1CCc1ccccc1` (stereo not shown) [CBK262282]: the viability at 28.5 h, 10 µM is 77.9%.

For `CN(CC(=O)N1CCN(Cc2ccc3c(c2)OCO3)CC1)S(=O)(=O)c1ccccc1` [CBK265791], the viability at 28.5 h, 10 µM was determined as 87%.

Consider `COc1cc(OC)c(NC(=O)CN(C)S(=O)(=O)c2cc(Cl)ccc2Cl)cc1Cl` [CBK267399], for which the viability at 28.5 h, 10 µM turned out to be 91.3%.

For `Cc1ccc(-c2ccn(C(C)C(=O)N(C)C)n2)cc1` (stereo not shown) [CBK016069], the viability at 28.5 h, 10 µM worked out at 98.4%.

`CC1=C(C)CC(C(=O)Nc2ccc(C(=O)NCc3cccnc3)cc2)C(C(=O)O)C1` (stereo not shown) [CBK286567]: the viability at 28.5 h, 10 µM came out at 78.8%.

`c1cncc(CN2CCCN(c3nccc(OCC4COc5ccccc5O4)n3)CC2)c1` (stereo not shown) [CBK083969]: the viability at 28.5 h, 10 µM was 112%.

Turning to `Brc1ccc2nc(NCc3ccccn3)nc(-c3ccccc3)c2c1` [CBK266736], the viability at 28.5 h, 10 µM came out at 89.3%.

With `CSc1nc2c(cc1C#N)CCC2` [CBK026532], the viability at 28.5 h, 10 µM is 108%.

`Cn1nc(-c2ccc(F)cc2)cc1C(=O)NCCn1ccnc1` [CBK281576]: the viability at 28.5 h, 10 µM worked out at 87.8%.

On to `Clc1cncc(OCCc2c[nH]c3ccccc23)n1` [CBK176027], for which the viability at 28.5 h, 10 µM was determined as 65.2%.

Consider `CC(C)Nc1nc2cc(Cl)c(Cl)cc2nc1Sc1cccc(O)c1` [CBK093732], for which the viability at 28.5 h, 10 µM turned out to be 94.8%.

Regarding `O=C(O)c1cc2nc3c(c(C(F)(F)F)n2n1)CCc1ccccc1-3` [CBK263025], the viability at 28.5 h, 10 µM amounted to 102%.

As to `CNC(=O)c1cc(-c2cccc(C)c2)oc1C` [CBK047432], the viability at 28.5 h, 10 µM amounted to 80.3%.

Consider `O=S(=O)(c1ccccc1)N(CC(O)CN1CCCC1)c1cccc2ccccc12` (stereo not shown) [CBK264464C], for which the viability at 28.5 h, 10 µM was 93.9%.

On to `CCOc1ccc2c(c1)-c1c(ssc1=S)C(C)(C)N2C(=O)CSc1nnc[nH]1` [CBK262680], for which the viability at 28.5 h, 10 µM is 98.6%.

Turning to `O=C(O)CC(NS(=O)(=O)c1cccc([N+](=O)[O-])c1)c1ccccc1` (stereo not shown) [CBK262641], the viability at 28.5 h, 10 µM worked out at 96.4%.

In the case of `COc1ccccc1CC(C)NC(=O)c1csc(C(C)=O)c1` (stereo not shown) [CBK282517], the viability at 28.5 h, 10 µM came to 114%.

Take `O=C(NCCc1c[nH]c2ccc(Cl)cc12)c1ccc(Cl)cc1Cl` [CBK159750]: the viability at 28.5 h, 10 µM came to 105%.

For the compound `CC[C@H]1CN(S(=O)(=O)c2c(C)noc2C)CC[C@H]1CC(=O)Nc1nccs1` [CBK288779], the viability at 28.5 h, 10 µM worked out at 88.3%.

As to `C[C@H](c1ccccc1)n1c(=O)[nH]c2ncc(-c3cncc4ccccc34)nc21` [CBK064709], the viability at 28.5 h, 10 µM came to 90.4%.

Take `Cc1cc(C2CCCCCN2C(=O)c2ccccc2F)on1` (stereo not shown) [CBK284842]: the viability at 28.5 h, 10 µM stood at 94.5%.

As for `O=[N+]([O-])c1ccc(S(=O)(=O)NCCc2nc3ccccc3[nH]2)cc1` [CBK261796], the viability at 28.5 h, 10 µM is 112%.

For `COc1ccc(-n2c(=O)[nH]cc(C(=O)Nc3cc(C)ccc3OC)c2=O)cc1` [CBK287548], the viability at 28.5 h, 10 µM stood at 107%.

As for `COc1cccc(CNC(=O)CCc2nc3ccccc3[nH]2)c1` [CBK288003], the viability at 28.5 h, 10 µM was 115%.

On to `Cn1ccnc1C1(O)CC2CCC(C1)N2C(=O)c1ccc(F)cc1` (stereo not shown) [CBK284086], for which the viability at 28.5 h, 10 µM came to 98.4%.

With `Cc1cc(C(=O)Nc2c(C)noc2C)n[nH]1` [CBK200395], the viability at 28.5 h, 10 µM is 87.4%.

Consider `COc1nccnc1N1CCN(CCSC)CC1` [CBK084227], for which the viability at 28.5 h, 10 µM stood at 90.2%.

In the case of `Cc1cc(C2CCCCCN2C(=O)c2cc(C(C)C)on2)on1` (stereo not shown) [CBK281733], the viability at 28.5 h, 10 µM came to 79.7%.

As for `OCc1ccc(CN2C[C@H](O)C[C@H]2c2nc(-c3cnccn3)no2)o1` [CBK288832], the viability at 28.5 h, 10 µM stood at 91.9%.

Turning to `CCCc1ccc(N(C)C(=O)c2ccc(OCC)cc2)cc1` [CBK161615], the viability at 28.5 h, 10 µM is 107%.

Regarding `COC(=O)c1ccsc1NS(=O)(=O)Cc1ccccc1` [CBK039067], the viability at 28.5 h, 10 µM came to 108%.

As to `c1cc(-c2nccnc2NCC2CCCCC2)ccn1` [CBK037627], the viability at 28.5 h, 10 µM was found to be 99.4%.

Regarding `O=C(CSc1nnc(SCc2cccc3ccccc23)s1)c1ccc2c(c1)OCO2` [CBK267576], the viability at 28.5 h, 10 µM was 100%.

Turning to `CC(C)n1ccnc1CNc1cccc(OCC(=O)N2CCCC2)c1` [CBK305377], the viability at 28.5 h, 10 µM stood at 97%.

Regarding `Cc1nc2ncnc(N3CCc4ccccc43)c2[nH]1` [CBK291228], the viability at 28.5 h, 10 µM stood at 89.2%.

For `COc1ccccc1N1CCN(C(=O)CCC(=O)c2cccs2)CC1` [CBK091498], the viability at 28.5 h, 10 µM stood at 109%.

As to `CC(=O)Nc1nc(CN2CCOC(c3ccc(F)cc3)C2)cs1` (stereo not shown) [CBK305591], the viability at 28.5 h, 10 µM came to 98.5%.

As to `Cc1nn(CC(=O)NC2CCC2)c(=O)c2cc3ccsc3n12` [CBK284103], the viability at 28.5 h, 10 µM was 103%.

`Cc1ccc(CN(Cc2nccn2C)C2CC(C)(C)NC(C)(C)C2)o1` [CBK283190]: the viability at 28.5 h, 10 µM is 112%.

Regarding `COC(C)(C)C(=O)N1CCCC(c2ccc(Cc3ccc(Cl)cc3)cn2)C1` (stereo not shown) [CBK285846], the viability at 28.5 h, 10 µM stood at 98.6%.

The term viability denotes a read-out of living cells in per cent, often relative to untreated cells.
